Assay results taken from patent US20220304978A1, “INHIBITING MESANGIAL CELL ACTIVATION” (Chinook Therapeutics, Inc., priority 2019, published 2022).

Tested on: kidney tissue of g-ddY mice
Experiment: IPA upstream regulator analysis, g-ddY kidney RNA-seq
Conditions: 30 mg/kg/day
[1] = ligand-dependent nuclear receptor

Compound: CCCCN(CCCC)C(=O)CN1C[C@H](c2ccc3c(c2)OCO3)[C@@H](C(=O)O)[C@@H]1c1ccc(OC)cc1 [atrasentan, (2R,3R,4S)-4-(1,3-benzodioxol-5-yl)-1-[2-(dibutylamino)-2-oxoethyl]-2-(4-methoxyphenyl)pyrrolidine-3-carboxylic acid]
- AHR Activation z-score [1]: 2.092
- AHR Predicted Activation State [1]: Activated
- ESR1 Activation z-score [1]: −2.439
- ESR1 Predicted Activation State [1]: Inhibited
- ESRRA Activation z-score [1]: 2.517
- ESRRA Predicted Activation State [1]: Activated
- NR3C2 Activation z-score [1]: −2.191
- NR3C2 Predicted Activation State [1]: Inhibited
- NR4A1 Activation z-score [1]: −2.488
- NR4A1 Predicted Activation State [1]: Inhibited
- PPARA Activation z-score [1]: 3.182
- PPARA Predicted Activation State [1]: Activated
- PPARG Activation z-score [1]: 3.581
- PPARG Predicted Activation State [1]: Activated
- RXRA Activation z-score [1]: 2.96
- RXRA Predicted Activation State [1]: Activated
- ARNT2 Activation z-score (transcription regulator): −2.079
- ARNT2 Predicted Activation State (transcription regulator): Inhibited
- BCL6 Activation z-score (transcription regulator): 2.514
- BCL6 Predicted Activation State (transcription regulator): Activated
- CBX5 Activation z-score (transcription regulator): 2.355
- CBX5 Predicted Activation State (transcription regulator): Activated
- CCND1 Activation z-score (transcription regulator): −3.003
- CCND1 Predicted Activation State (transcription regulator): Inhibited
- CEBPD Activation z-score (transcription regulator): −2.154
- CEBPD Predicted Activation State (transcription regulator): Inhibited
- CTNNB1 Activation z-score (transcription regulator): −3.373
- CTNNB1 Predicted Activation State (transcription regulator): Inhibited
- DACH1 Activation z-score (transcription regulator): 2.354
- DACH1 Predicted Activation State (transcription regulator): Activated
- ECSIT Activation z-score (transcription regulator): −2.72
- ECSIT Predicted Activation State (transcription regulator): Inhibited
- EGR1 Activation z-score (transcription regulator): −2.766
- EGR1 Predicted Activation State (transcription regulator): Inhibited
- ELK1 Activation z-score (transcription regulator): −2.151
- ELK1 Predicted Activation State (transcription regulator): Inhibited
- ERG Activation z-score (transcription regulator): −3.672
- ERG Predicted Activation State (transcription regulator): Inhibited
- ETS1 Activation z-score (transcription regulator): −2.096
- ETS1 Predicted Activation State (transcription regulator): Inhibited
- FEV Activation z-score (transcription regulator): −3.651
- FEV Predicted Activation State (transcription regulator): Inhibited
- FOXC1 Activation z-score (transcription regulator): −2.563
- FOXC1 Predicted Activation State (transcription regulator): Inhibited
- FOXC2 Activation z-score (transcription regulator): −3.361
- FOXC2 Predicted Activation State (transcription regulator): Inhibited
- FOXF1 Activation z-score (transcription regulator): −2.253
- FOXF1 Predicted Activation State (transcription regulator): Inhibited
- FOXL2 Activation z-score (transcription regulator): −3.108
- FOXL2 Predicted Activation State (transcription regulator): Inhibited
- FOXM1 Activation z-score (transcription regulator): −2.307
- FOXM1 Predicted Activation State (transcription regulator): Inhibited
- FOXO3 Activation z-score (transcription regulator): 2.338
- FOXO3 Predicted Activation State (transcription regulator): Activated
- GATA1 Activation z-score (transcription regulator): −3.309
- GATA1 Predicted Activation State (transcription regulator): Inhibited
- GFI1 Activation z-score (transcription regulator): 2.82
- GFI1 Predicted Activation State (transcription regulator): Activated
- GPS2 Activation z-score (transcription regulator): 2.51
- GPS2 Predicted Activation State (transcription regulator): Activated
- HIF1A Activation z-score (transcription regulator): −2.042
- HIF1A Predicted Activation State (transcription regulator): Inhibited
- HNF1A Activation z-score (transcription regulator): 4.107
- HNF1A Predicted Activation State (transcription regulator): Activated
- HNF1B Activation z-score (transcription regulator): 2.944
- HNF1B Predicted Activation State (transcription regulator): Activated
- HNF4A Activation z-score (transcription regulator): 4.856
- HNF4A Predicted Activation State (transcription regulator): Activated
- HOXC6 Activation z-score (transcription regulator): −2.35
- HOXC6 Predicted Activation State (transcription regulator): Inhibited
- IKZF1 Activation z-score (transcription regulator): 3.472
- IKZF1 Predicted Activation State (transcription regulator): Activated
- IKZF3 Activation z-score (transcription regulator): 3.165
- IKZF3 Predicted Activation State (transcription regulator): Activated
- IRF7 Activation z-score (transcription regulator): −4.492
- IRF7 Predicted Activation State (transcription regulator): Inhibited
- IRF8 Activation z-score (transcription regulator): −2.577
- IRF8 Predicted Activation State (transcription regulator): Inhibited
- JUNB Activation z-score (transcription regulator): −3.721
- JUNB Predicted Activation State (transcription regulator): Inhibited
- KDM5A Activation z-score (transcription regulator): −5.858
- KDM5A Predicted Activation State (transcription regulator): Inhibited
- KLF2 Activation z-score (transcription regulator): 2.742
- KLF2 Predicted Activation State (transcription regulator): Activated
- KLF4 Activation z-score (transcription regulator): −3.94
- KLF4 Predicted Activation State (transcription regulator): Inhibited
- KLF15 Activation z-score (transcription regulator): 3.401
- KLF15 Predicted Activation State (transcription regulator): Activated
- KMT2A Activation z-score (transcription regulator): −2.246
- KMT2A Predicted Activation State (transcription regulator): Inhibited
- LHX1 Activation z-score (transcription regulator): 4.214
- LHX1 Predicted Activation State (transcription regulator): Activated
- MECP2 Activation z-score (transcription regulator): −2.419
- MECP2 Predicted Activation State (transcription regulator): Inhibited
- MEF2D Activation z-score (transcription regulator): −3.056
- MEF2D Predicted Activation State (transcription regulator): Inhibited
- MEOX2 Activation z-score (transcription regulator): 2.54
- MEOX2 Predicted Activation State (transcription regulator): Activated
- MESP1 Activation z-score (transcription regulator): −2.646
- MESP1 Predicted Activation State (transcription regulator): Inhibited
- MESP2 Activation z-score (transcription regulator): −2.449
- MESP2 Predicted Activation State (transcription regulator): Inhibited
- MLXIPL Activation z-score (transcription regulator): 2.871
- MLXIPL Predicted Activation State (transcription regulator): Activated
- MRTFA Activation z-score (transcription regulator): −3.84
- MRTFA Predicted Activation State (transcription regulator): Inhibited
- MRTFB Activation z-score (transcription regulator): −4.734
- MRTFB Predicted Activation State (transcription regulator): Inhibited
- MTPN Activation z-score (transcription regulator): −2.942
- MTPN Predicted Activation State (transcription regulator): Inhibited
- MYCN Activation z-score (transcription regulator): 4.584
- MYCN Predicted Activation State (transcription regulator): Activated
- Msx3 Activation z-score (transcription regulator): −2
- Msx3 Predicted Activation State (transcription regulator): Inhibited
- NCOA3 Activation z-score (transcription regulator): −2.143
- NCOA3 Predicted Activation State (transcription regulator): Inhibited
- NEUROG1 Activation z-score (transcription regulator): 3
- NEUROG1 Predicted Activation State (transcription regulator): Activated
- NFE2L2 Activation z-score (transcription regulator): 3.389
- NFE2L2 Predicted Activation State (transcription regulator): Activated
- NFKB1 Activation z-score (transcription regulator): −3.239
- NFKB1 Predicted Activation State (transcription regulator): Inhibited
- NRIP1 Activation z-score (transcription regulator): −2.267
- NRIP1 Predicted Activation State (transcription regulator): Inhibited
- PAX7 Activation z-score (transcription regulator): −2.883
- PAX7 Predicted Activation State (transcription regulator): Inhibited
- PCGF2 Activation z-score (transcription regulator): 2
- PCGF2 Predicted Activation State (transcription regulator): Activated
- PDX1 Activation z-score (transcription regulator): −2.958
- PDX1 Predicted Activation State (transcription regulator): Inhibited
- PITX2 Activation z-score (transcription regulator): 3.976
- PITX2 Predicted Activation State (transcription regulator): Activated
- PPARGC1A Activation z-score (transcription regulator): 8.123
- PPARGC1A Predicted Activation State (transcription regulator): Activated
- PPARGC1B Activation z-score (transcription regulator): 2.664
- PPARGC1B Predicted Activation State (transcription regulator): Activated
- PRDM1 Activation z-score (transcription regulator): 2.281
- PRDM1 Predicted Activation State (transcription regulator): Activated
- RB1 Activation z-score (transcription regulator): 4.435
- RB1 Predicted Activation State (transcription regulator): Activated
- REL Activation z-score (transcription regulator): −2.451
- REL Predicted Activation State (transcription regulator): Inhibited
- RELA Activation z-score (transcription regulator): −4.344
- RELA Predicted Activation State (transcription regulator): Inhibited
- RUNX3 Activation z-score (transcription regulator): 3.355
- RUNX3 Predicted Activation State (transcription regulator): Activated
- SMAD2 Activation z-score (transcription regulator): −2.323
- SMAD2 Predicted Activation State (transcription regulator): Inhibited
- SMAD3 Activation z-score (transcription regulator): −2.952
- SMAD3 Predicted Activation State (transcription regulator): Inhibited
- SMAD4 Activation z-score (transcription regulator): −2.417
- SMAD4 Predicted Activation State (transcription regulator): Inhibited
- SMAD7 Activation z-score (transcription regulator): 3.504
- SMAD7 Predicted Activation State (transcription regulator): Activated
- SMARCA4 Activation z-score (transcription regulator): −3.211
- SMARCA4 Predicted Activation State (transcription regulator): Inhibited
- SMYD1 Activation z-score (transcription regulator): 2.213
- SMYD1 Predicted Activation State (transcription regulator): Activated
- SNAI1 Activation z-score (transcription regulator): −2.699
- SNAI1 Predicted Activation State (transcription regulator): Inhibited
- SOX4 Activation z-score (transcription regulator): −2.397
- SOX4 Predicted Activation State (transcription regulator): Inhibited
- SP1 Activation z-score (transcription regulator): −2.444
- SP1 Predicted Activation State (transcription regulator): Inhibited
- SPDEF Activation z-score (transcription regulator): 4.415
- SPDEF Predicted Activation State (transcription regulator): Activated
- SPI1 Activation z-score (transcription regulator): −3.51
- SPI1 Predicted Activation State (transcription regulator): Inhibited
- SPIB Activation z-score (transcription regulator): −2.933
- SPIB Predicted Activation State (transcription regulator): Inhibited
- SPZ1 Activation z-score (transcription regulator): −2.022
- SPZ1 Predicted Activation State (transcription regulator): Inhibited
- SREBF2 Activation z-score (transcription regulator): 2.277
- SREBF2 Predicted Activation State (transcription regulator): Activated
- SRF Activation z-score (transcription regulator): −3.269
- SRF Predicted Activation State (transcription regulator): Inhibited
- SRSF2 Activation z-score (transcription regulator): 2.328
- SRSF2 Predicted Activation State (transcription regulator): Activated
- STAT1 Activation z-score (transcription regulator): −3.918
- STAT1 Predicted Activation State (transcription regulator): Inhibited
- STAT3 Activation z-score (transcription regulator): −4.716
- STAT3 Predicted Activation State (transcription regulator): Inhibited
- STAT4 Activation z-score (transcription regulator): −2.401
- STAT4 Predicted Activation State (transcription regulator): Inhibited
- TCF4 Activation z-score (transcription regulator): −2.836
- TCF4 Predicted Activation State (transcription regulator): Inhibited
- TCF7L1 Activation z-score (transcription regulator): 2.373
- TCF7L1 Predicted Activation State (transcription regulator): Activated
- TEAD1 Activation z-score (transcription regulator): −3.036
- TEAD1 Predicted Activation State (transcription regulator): Inhibited
- TEAD2 Activation z-score (transcription regulator): −3.153
- TEAD2 Predicted Activation State (transcription regulator): Inhibited
- TEAD3 Activation z-score (transcription regulator): −3.638
- TEAD3 Predicted Activation State (transcription regulator): Inhibited
- TEAD4 Activation z-score (transcription regulator): −2.143
- TEAD4 Predicted Activation State (transcription regulator): Inhibited
- TFAP2C Activation z-score (transcription regulator): 2.899
- TFAP2C Predicted Activation State (transcription regulator): Activated
- TFEB Activation z-score (transcription regulator): 2.587
- TFEB Predicted Activation State (transcription regulator): Activated
- TP53 Activation z-score (transcription regulator): −3.365
- TP53 Predicted Activation State (transcription regulator): Inhibited
- TWIST1 Activation z-score (transcription regulator): −2.987
- TWIST1 Predicted Activation State (transcription regulator): Inhibited
- Tcf7 Activation z-score (transcription regulator): −3.984
- Tcf7 Predicted Activation State (transcription regulator): Inhibited
- XBP1 Activation z-score (transcription regulator): 3.505
- XBP1 Predicted Activation State (transcription regulator): Activated
- YAP1 Activation z-score (transcription regulator): −4.255
- YAP1 Predicted Activation State (transcription regulator): Inhibited
